# Results from patent US20260234107A1, “TRYPTAMINES AND METHODS OF TREATING MOOD DISORDERS” (priority 2022, published 2026).
# Read-outs that look alike come from different tables or passages of the source.
# What was measured:
# [1] = Stability in mouse brain homogenate; type: in vitro ADME, male CD-1 mice; conditions: mouse brain homogenate, 1 μM, 37° C.; for half-life at 1 µM: male, CD-1
# Experimental: Disclosed compounds were tested for stability in mouse brain homogenate (Table 7). There was widely variable stability among the test compounds under the conditions of the experiment.
# (§1) Mouse Brain Homogenate Stability. Frozen mouse brain homogenate (pooled from male CD-1 mice, BioreclamationIVT, MSE00BRAINMZA) was thawed in a water bath at 37° C. immediately prior to use. Positive controls and test compounds (final concentration in incubation medium=1 μM for test compounds and 2 μM for controls, all with 2% DMSO) were incubated in duplicate for each time point (0, 10, 30, 60, and 120 min) in the mouse brain homogenate at a total reaction volume of 100 μL at 37° C. At the end of each incubation period, reactions were immediately quenched with 400 μL of acetonitrile containing internal standard (200 ng/mL tolbutamine and 200 ng/mL labetalol) and mixed thoroughly. Plates were then sealed, shaken for 20 min, and centrifuged at 4,000 rpm and 4° C. for 20 min. Aliquots of 50 μL of each supernatant were diluted into 100 μL of water and the mixtures were then shaken again for 10 min.
# [2] = test system: monoamine oxidase A and B (MAO-A and MAO-B); experiment: Stability in the presence of monoamine oxidases (human liver mitochondria preparation); design: half-life / microsomal CLint: dose or concentration left out as unconfirmed; conditions: for stability in the presence of MAO (in words): human liver mitochondria preparation; for Remaining (t = 60 min) / half-life / microsomal CLint: human liver mitochondria; for half-life / microsomal CLint: human, pH 7.4
# Experimental: Liver Mitochondria Incubations. Human liver mitochondria (Xenotech H0610.M) were used.
# [3] = Stability in rat brain homogenate; type: in vitro ADME, male Sprague Dawley rats; conditions: rat brain homogenate, 1 μM, 37° C.; for half-life at 1 µM: male, Sprague Dawley
# Experimental: Disclosed compounds were tested for stability in rat brain homogenate (Table 8). There was widely variable stability among the test compounds under the conditions of the experiment.
# as §1, with “Rat” for “Mouse”, “rat” for “mouse”, “Sprague Dawley rats,” for “CD-1 mice,”, “RAT00BRAINMZA)” for “MSE00BRAINMZA)”
# rat synaptosomes = experiment: Serotonin (5-HT) release from rat synaptosomes; type: biochemical, Male Sprague-Dawley rats; conditions: for EC50: rat synaptosomes preloaded with [3H]5-HT; for % Release @ Max Dose (10 μM): rat synaptosomes
# Experimental: Disclosed compounds were assessed for their ability to release serotonin (5-HT) from […] (Table 9). Potency and efficacy for 5-HT release varied substantially depending on the specific compound. […] However, there was also substantial variability among 4-hydroxy compounds.
# Synaptosome 5-HT Release Assay. Synaptosome release assays were conducted according to modifications of previously described procedures (Partilla et al. (2016). Interrogating the Activity of Ligands at Monoamine Transporters in Rat Brain Synaptosomes. In Neurotransmitter Transporters (pp. 41-52). Springer.). Briefly, synaptosomes were prepared from rat brains. Male Sprague-Dawley rats were rendered unconscious with CO2 and their brains were immediately removed. The cerebella were discarded and the whole brains (minus striatum) were placed in ice-cold 0.32 M sucrose (10 mL per brain) and gently homogenized by hand. The homogenate of each brain was centrifuged at 1,000×g at 4° C. for 10 mins and the resulting supernatant was diluted with ice-cold 0.32 M sucrose to a total volume of 10 mL to provide the synaptosome solution. Synaptosomes were then preloaded with 5 nM [^3H]5-HT in the presence of selective uptake inhibitors of DAT (50 nM GBR12935), NET (100 nM nomifensine), and VMAT2 (1 μM reserpine) in Krebs phosphate buffer (KPB). The incubations were allowed to reach equilibrium for 2 h at 25° C. For the release reactions, 425 μL of preloaded synaptosomes were added to test tubes containing 75 μL of test drugs diluted in KPB containing 1 mg/mL BSA. After 10 mins, the release reaction was stopped using a cell harvester by rapid vacuum filtration over GF/B filter paper presoaked in wash buffer (10 mM Tris-HCl, pH 7.4, 150 mM NaCl) and the filters were washed with additional wash buffer. Filters were dried for 1 h at 60° C. and retained radioactivity was quantified using a MicroBeta 2 liquid scintillation counter. The amount of retained radioactivity was inversely proportional to the extent of release.
# [4] = Metabolic stability in human liver microsomes (HLM); design: microsomal CLint / half-life: dose or concentration left out as unconfirmed; conditions: both, human, pooled human liver microsomes, pH 7.4
# 5-HT1A = target: T1, 5-HT1A (Homo sapiens, UniProt P08908); experiment: FLIPR Ca2+ flux agonist assay at 5-HT1A; type: cell-based; conditions: for 5-HT1A % Act @ Max Dose: Ca2+ flux, CHO cells
# T1 construct: host or cells: CHO cells
# T1 sequence (P08908 1-422): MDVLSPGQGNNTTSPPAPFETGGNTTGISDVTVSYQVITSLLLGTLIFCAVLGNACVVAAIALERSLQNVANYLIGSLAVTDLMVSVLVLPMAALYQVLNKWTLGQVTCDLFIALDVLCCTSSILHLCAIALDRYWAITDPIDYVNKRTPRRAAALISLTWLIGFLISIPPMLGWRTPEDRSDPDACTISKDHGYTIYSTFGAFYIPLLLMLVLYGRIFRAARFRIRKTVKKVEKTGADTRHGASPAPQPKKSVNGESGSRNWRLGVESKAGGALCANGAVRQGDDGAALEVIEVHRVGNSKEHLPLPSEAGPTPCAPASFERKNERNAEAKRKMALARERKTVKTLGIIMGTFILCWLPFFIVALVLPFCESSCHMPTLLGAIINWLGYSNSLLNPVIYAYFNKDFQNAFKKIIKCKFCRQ
# Experimental: (§2) A solution of 250 mM probenecid in 1 mL FLIPR assay buffer was prepared fresh. This was combined with a fluorescent dye (Fluo-4 Direct™) to make a final assay concentration of 2.5 mM. […] The fluorescent dye was then added to the assay plate along with assay buffer to a final volume of 40 μL. The cell plate was incubated for 50 min at 37° C. and 5% CO2 and placed into the FLIPR Tetra along with the compound plate. 10 μL of references and compounds were then transferred from the compound plate into the cell plate and the fluorescent signal was read.
# 5-HT2A = 5-HT2A (Homo sapiens, UniProt P28223); experiment: FLIPR Ca2+ flux agonist assay at 5-HT2A; type: cell-based; design: host or cells: HEK293; conditions: for 5-HT2A % Act @ Max Dose: HEK293, max dose
# 5-HT2A, sequence (P28223 whole entry): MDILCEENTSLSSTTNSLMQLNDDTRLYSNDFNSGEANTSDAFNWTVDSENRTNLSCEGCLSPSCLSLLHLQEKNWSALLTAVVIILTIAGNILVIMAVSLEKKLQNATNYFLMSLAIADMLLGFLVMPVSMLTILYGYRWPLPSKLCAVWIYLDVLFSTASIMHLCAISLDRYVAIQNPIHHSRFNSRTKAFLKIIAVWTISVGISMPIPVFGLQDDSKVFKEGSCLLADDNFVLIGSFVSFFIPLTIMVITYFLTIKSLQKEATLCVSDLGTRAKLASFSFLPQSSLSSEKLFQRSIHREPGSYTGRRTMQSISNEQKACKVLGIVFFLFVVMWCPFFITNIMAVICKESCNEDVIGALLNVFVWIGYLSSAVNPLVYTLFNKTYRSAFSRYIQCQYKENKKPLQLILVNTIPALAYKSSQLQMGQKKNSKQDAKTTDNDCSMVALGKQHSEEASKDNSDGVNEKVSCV
# Experimental: as §2
# 5-HT2B = target: T2, 5-HT2B (Homo sapiens, UniProt P41595); experiment: FLIPR Ca2+ flux agonist assay at 5-HT2B; type: cell-based; conditions: for 5-HT2B % Act @ Max Dose: Ca2+ flux, HEK293, max dose
# T2 construct: host or cells: HEK293
# T2 sequence (P41595 whole entry, species assumed): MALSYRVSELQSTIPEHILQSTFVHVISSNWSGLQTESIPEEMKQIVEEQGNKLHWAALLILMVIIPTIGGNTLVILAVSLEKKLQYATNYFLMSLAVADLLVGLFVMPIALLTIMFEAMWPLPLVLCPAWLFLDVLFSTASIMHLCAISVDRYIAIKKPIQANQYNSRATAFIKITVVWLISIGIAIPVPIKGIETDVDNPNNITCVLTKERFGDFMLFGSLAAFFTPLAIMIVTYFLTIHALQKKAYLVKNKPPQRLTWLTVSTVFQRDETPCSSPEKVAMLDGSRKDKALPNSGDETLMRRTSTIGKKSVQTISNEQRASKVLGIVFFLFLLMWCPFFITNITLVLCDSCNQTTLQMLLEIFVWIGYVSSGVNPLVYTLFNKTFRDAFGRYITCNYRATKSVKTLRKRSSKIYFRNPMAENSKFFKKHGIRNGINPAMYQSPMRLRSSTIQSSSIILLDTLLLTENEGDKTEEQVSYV
# Experimental: as §2
# [5] = human liver mitochondria 0.30 mg protein/mL, 37° C.
Structure (SMILES),half-life at 1 µM [1] [min],% Compound Remaining (after 120 min) [1] [%],stability in the presence of MAO (in words) [2],Remaining (t = 60 min) [2] [%],half-life [2] [min],microsomal CLint [2] [µL/min/mg],half-life at 1 µM [3] [min],% Compound Remaining (after 120 min) [3] [%],EC50 (rat synaptosomes) [µM],% Release @ Max Dose (10 μM) (rat synaptosomes) [%],half-life [4] [min],microsomal CLint [4] [µL/min/mg],EC50 (5-HT1A) [µM],5-HT1A % Act @ Max Dose (5-HT1A) [%],EC50 (5-HT2B) [nM],5-HT2B % Act @ Max Dose (5-HT2B) [%],EC50 (5-HT2A) [nM],5-HT2A % Act @ Max Dose (5-HT2A; Ca2+ flux) [%],further results
"CCCNCCc1c[nH]c2cccc(O)c12 [Compound 3, 3-(2-(propylamino)ethyl)-1H-indol-4-ol]",72.6,29.2,highly stable,97.3,> 145,< 15.9,137,52.5,> 10,36.06,120,11.6,33.1,10.7,,,,,
"CC(C)NCCc1c[nH]c2cccc(O)c12 [Compound 6, 3-(2-(isopropylamino)ethyl)-1H-indol-4-ol]",163,62.6,,80.5,> 145,< 15.9,136,53.8,> 10,32.8,> 145,< 9.6,> 100,10.15,,,,,
"CNCCc1c[nH]c2cc(F)cc(O)c12 [Compound 33, 6-fluoro-3-(2-(methylamino)ethyl)-1H-indol-4-ol]",16,0.6,,14.3,20.2,114,9.1,0.4,,,10.1,138,> 100,3.51,28.5,31.76,,,"EC50 (5-HT2A; Ca2+ flux, HEK293, read-out: 5-HT2A EC50): 5.8 nM"
"CNCCc1c[nH]c2c(F)ccc(O)c12 [Compound 34, 7-fluoro-3-(2-(methylamino)ethyl)-1H-indol-4-ol]",21.7,1.6,,6.4,15,154,3.6,0,,,6.6,209,> 100,36.72,> 10000,8.09,16.2,77.43,
"CCCNCCc1c[nH]c2ccc(F)c(O)c12 [Compound 36, 5-fluoro-3-(2-(propylamino)ethyl)-1H-indol-4-ol]",108,46.2,,0.9,8.5,272,31,7.1,,,49.9,27.8,> 100,15.31,26.2,44.90,12.1,71.78,
"CCNCCc1c[nH]c2ccc(C)c(O)c12 [Compound 37, 3-(2-(ethylamino)ethyl)-5-methyl-1H-indol-4-ol]",69.9,31.3,,65.1,88.7,26.1,14.1,0.2,,,86.8,16,6.95,64.6,274,16.28,56.5,91.0,
"CCNCCc1c[nH]c2ccc(Cl)c(O)c12 [Compound 38, 5-chloro-3-(2-(ethylamino)ethyl)-1H-indol-4-ol]",17.5,0.9,intermediate stability,22.6,26.1,88.6,9.2,0,,,13.2,105,1.84,77.96,42.4,43.30,10.5,103.70,
"CNCCc1c[nH]c2cc(C)cc(O)c12 [Compound 39, 6-methyl-3-(2-(methylamino)ethyl)-1H-indol-4-ol]",15.5,0.4,,13.5,17.8,130,6.3,0.1,,,9.9,140,> 100,4.4,> 10000,10.04,78.4,76.43,
"CN(C)CCc1c[nH]c2ccccc12 [DMT, N,N-dimethyltryptamine, reference compound]",,0.0,rapidly metabolized by MAO,8.9,,,,0.0,0.0808,80.77,,,,,,,,,"t1/2 [1]: 6.4 min; CLint(MAO) [2, 5]: 134.9 µL/min/mg; t1/2 [2, 5]: 17.1 min; t1/2 [3]: 5.1 min"
